What was measured:
Assay type in all cases: biochemical
[1] = target: T1, FGFR2 (Homo sapiens, UniProt P21802); assay: FGFR2 kinase activity inhibition assay (LanthaScreen TR-FRET); conditions: FGFR2 kinase, TR-FRET; read-out: IC50 (nM) FGFR2
T1 construct: FGFR2's cytoplasmic domain [399-821 (terminal) amino acids]; purchased Carna 08-134
How it was run: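 GST-fused FGFR2 cytoplasmic domain (aa 399-821) was run as in the FGFR1 protocol: preincubated 10 min at 23 °C with compound (3-fold series from 1 µM) in 50 mM HEPES pH 7.5, 10 mM MgCl2, 4 mM DTT, 1% DMSO. A 2× mix of 28 nM fluorescein-poly GT/28 µM ATP then reacted 30 min. Tb-PY20/EDTA quench preceded the TR-FRET 520/495 read.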

[2] = target: T2, FGFR3 (Homo sapiens, UniProt P22607); assay: FGFR3 kinase activity inhibition assay (LanthaScreen TR-FRET); conditions: for IC50: FGFR3 kinase, TR-FRET, read-out: IC50 (nM) FGFR3; for Selectivity (X) FGFR1/FGFR3: ratio of IC50 FGFR1/FGFR3, selectivity towards FGFR3; for Selectivity (X) FGFR2/FGFR3: ratio of IC50 FGFR2/FGFR3, selectivity towards FGFR3; for Selectivity (X) FGFR4/FGFR3: ratio of IC50 FGFR4/FGFR3, selectivity towards FGFR3
T2 construct: FGFR3's cytoplasmic domain [436-806 (terminal) amino acids]; purchased Carna 08-135
T2 sequence (P22607 436-806): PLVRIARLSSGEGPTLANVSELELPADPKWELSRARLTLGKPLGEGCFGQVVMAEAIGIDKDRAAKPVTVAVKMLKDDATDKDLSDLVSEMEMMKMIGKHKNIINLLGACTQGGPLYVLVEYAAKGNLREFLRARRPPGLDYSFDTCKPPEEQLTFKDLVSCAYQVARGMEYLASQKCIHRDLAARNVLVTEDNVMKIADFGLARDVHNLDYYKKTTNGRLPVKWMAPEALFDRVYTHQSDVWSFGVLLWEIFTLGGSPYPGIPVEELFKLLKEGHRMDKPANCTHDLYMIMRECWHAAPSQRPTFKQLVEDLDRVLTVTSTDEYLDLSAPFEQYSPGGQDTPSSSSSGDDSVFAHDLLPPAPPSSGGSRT
How it was run: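 Read-out is TR-FRET, with the 520 nm/495 nm emission ratio normalised to DMSO (max) and enzyme-free (min) controls. Enzyme was the FGFR3 cytoplasmic domain, residues 436-806. EDTA (10 mM) stopped the reaction, followed by 60 min at 22 °C before reading.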

[3] = target: T3, FGFR4 (Homo sapiens, UniProt P22455); assay: FGFR4 kinase activity inhibition assay (LanthaScreen TR-FRET); conditions: FGFR4 kinase, TR-FRET; read-out: IC50 (nM) FGFR4
T3 construct: FGFR4's cytoplasmic domain [460-802 (terminal) amino acids]; purchased Carna 08-136
T3 sequence (P22455 460-802): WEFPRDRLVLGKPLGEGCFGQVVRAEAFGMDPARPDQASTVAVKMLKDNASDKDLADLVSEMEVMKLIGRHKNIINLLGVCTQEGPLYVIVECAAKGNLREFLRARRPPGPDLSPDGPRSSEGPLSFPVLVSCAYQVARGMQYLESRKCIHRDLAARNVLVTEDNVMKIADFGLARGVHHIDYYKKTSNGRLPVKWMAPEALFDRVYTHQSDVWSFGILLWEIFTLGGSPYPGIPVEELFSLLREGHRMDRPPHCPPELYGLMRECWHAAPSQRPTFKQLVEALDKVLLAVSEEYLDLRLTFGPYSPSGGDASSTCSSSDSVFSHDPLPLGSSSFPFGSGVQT
How it was run: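 GST-tagged cytoplasmic domains (FGFR2 aa 399-821; FGFR4 aa 460-802) were preincubated 10 min at 23 °C with compound (top 1 µM, threefold dilutions). Then 28 nM fluorescein-poly GT and 28 µM ATP were added for 30 min at 23 °C in HEPES pH 7.5 buffer. Tb-PY20 TR-FRET 520/495 ratio gave % inhibition versus DMSO and no-enzyme controls.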

[4] = target: T4, FGFR1 (Homo sapiens, UniProt P11362); assay: FGFR1 kinase activity inhibition assay (LanthaScreen TR-FRET); conditions: FGFR1 kinase, TR-FRET; read-out: IC50 (nM) FGFR1
T4 construct: cytoplasmic domain [398-822 (terminal) amino acids]; purchased Carna 08-133
T4 sequence (P11362 398-822): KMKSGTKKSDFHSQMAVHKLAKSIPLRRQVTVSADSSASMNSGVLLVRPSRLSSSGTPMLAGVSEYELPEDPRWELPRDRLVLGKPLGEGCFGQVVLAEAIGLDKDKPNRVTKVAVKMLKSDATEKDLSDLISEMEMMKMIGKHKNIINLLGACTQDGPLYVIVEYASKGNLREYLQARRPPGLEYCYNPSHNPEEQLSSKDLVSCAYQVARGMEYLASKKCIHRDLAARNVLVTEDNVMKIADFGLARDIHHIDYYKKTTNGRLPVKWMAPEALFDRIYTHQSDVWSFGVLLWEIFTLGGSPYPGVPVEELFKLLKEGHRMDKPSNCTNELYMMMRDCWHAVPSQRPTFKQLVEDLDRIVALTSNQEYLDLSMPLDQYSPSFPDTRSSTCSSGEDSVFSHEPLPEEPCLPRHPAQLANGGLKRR
How it was run: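 Emission ratio 520 nm/495 nm by TR-FRET after stopping reaction with 10 mM EDTA and 60 min incubation at 22°C. Inhibition normalized between no-enzyme (min) and DMSO (max) controls, then fitted to a four-parameter curve (Top, Bottom, HillSlope).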

T1 sequence (P21802 399-821): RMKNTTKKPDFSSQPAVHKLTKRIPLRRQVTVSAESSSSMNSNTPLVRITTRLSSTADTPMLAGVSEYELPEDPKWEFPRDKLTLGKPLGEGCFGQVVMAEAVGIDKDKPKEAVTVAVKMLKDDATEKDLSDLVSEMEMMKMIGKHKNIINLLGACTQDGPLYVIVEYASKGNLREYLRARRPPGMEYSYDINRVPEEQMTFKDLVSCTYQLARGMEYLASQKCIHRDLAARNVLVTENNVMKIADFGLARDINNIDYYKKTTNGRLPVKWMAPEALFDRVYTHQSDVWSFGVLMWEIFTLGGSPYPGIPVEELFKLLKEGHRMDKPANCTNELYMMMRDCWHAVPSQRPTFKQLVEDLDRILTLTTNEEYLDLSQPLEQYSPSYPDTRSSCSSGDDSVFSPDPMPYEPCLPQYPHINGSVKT

IC50 [1] [nM] | IC50 [2] [nM] | Selectivity (X) FGFR1/FGFR3 [2] | Selectivity (X) FGFR2/FGFR3 [2] | Selectivity (X) FGFR4/FGFR3 [2] | IC50 [3] [nM] | IC50 [4] [nM] | Structure (SMILES)
10 to 100 | 1 to 10 | B (B represents 20 ≤ multiple X<50) | A (A represents 1 ≤ multiple X<20) | B (B represents 20 ≤ multiple X<50) | 10 to 100 | 10 to 100 | Cc1c(F)cc2ncccc2c1C(C)Oc1ccc2[nH]nc(-c3cnn(C)c3)c2c1 (stereo not drawn) [Example 161, 7-fluoro-6-methyl-5-(1-((3-(1-methyl-1H-pyrazol-4-yl)-1H-indazol-5-yl)oxy)ethyl)quinoline]
1 to 10 | < 1 | A (A represents 1 ≤ multiple X<20) | A (A represents 1 ≤ multiple X<20) | C (C represents 50 ≤ multiple X<100) | 10 to 100 | 1 to 10 | CC(Oc1ccc2[nH]nc(-c3cnn(C4CC(N(C)C)C4)c3)c2c1)c1cccc2nccnc12 (stereo not drawn) [Example 170, N,N-dimethyl-3-(4-(5-(1-(quinoxalin-5-yl)ethoxy)-1H-indazol-3-yl)-1H-pyrazol-1-yl)cyclobutan-1-amine]
1 to 10 | < 1 | B (B represents 20 ≤ multiple X<50) | A (A represents 1 ≤ multiple X<20) | B (B represents 20 ≤ multiple X<50) | 10 to 100 | 10 to 100 | Cc1cc(C(C)Oc2ccc3[nH]nc(-c4cnn(C)c4)c3c2)c2ccnn2c1 (stereo not drawn) [Example 171, 3-(1-methyl-1H-pyrazol-4-yl)-5-(1-(6-methylpyrazolo [1,5-a]pyridin-4-yl)ethoxy)-1H-indazole]
1 to 10 | < 1 | A (A represents 1 ≤ multiple X<20) | A (A represents 1 ≤ multiple X<20) | B (B represents 20 ≤ multiple X<50) | 10 to 100 | 1 to 10 | CC(Oc1ccc2[nH]nc(-c3cnn(CCCS(C)(=N)=O)c3)c2c1)c1cc(Cl)cc2nccnc12 (stereo not drawn) [Example 173, (3-(4-(5-(1-(7-chloroquinoxalin-5-yl)ethoxy)-1H-indazol-3-yl)-1H-pyrazol-1-yl)propyl)(imino)(methyl)-sulfanone]
1 to 10 | < 1 | B (B represents 20 ≤ multiple X<50) | B (B represents 20 ≤ multiple X<50) | D (D represents 100 ≤ multiple X) | 10 to 100 | 10 to 100 | CC(Oc1ccc2[nH]nc(-c3cnn(C)c3)c2c1)c1cc(Cl)cn2nccc12 (stereo not drawn) [Example 174, 5-(1-(6-chloropyrazolo[1,5-a]pyridin-4-yl)ethoxy)-3-(1-methyl-1H-pyrazol-4-yl)-1H-indazole]
10 to 100 | 1 to 10 | B (B represents 20 ≤ multiple X<50) | A (A represents 1 ≤ multiple X<20) | B (B represents 20 ≤ multiple X<50) | 10 to 100 | 10 to 100 | [2H]C([2H])([2H])c1ccc2ncccc2c1C(C)Oc1ccc2[nH]nc(-c3cnn(C)c3)c2c1 (stereo not drawn) [Example 187, 6-(methyl-d3) - 5-(1-((3-(1-methyl-1H-pyrazol-4-yl)-1H-indazol-5-yl)oxy)ethyl)qu inoline]
10 to 100 | < 1 | D (D represents 100 ≤ multiple X) | B (B represents 20 ≤ multiple X<50) | C (C represents 50 ≤ multiple X<100) | 10 to 100 | > 100 | CC(Oc1ccc2[nH]nc(-c3cnn(C4CN(C(=O)CO)C4)c3)c2c1)c1cc(Cl)cc2ncccc12 (stereo not drawn) [Example 189, 1-(3-(4-(5-(1-(7-chloroquinolin-5-yl)ethoxy)-1H-indazol-3-yl)-1H-pyrazol-1-yl)azetidin-1-yl)-2-hydroxyethan-1-one]
1 to 10 | < 1 | C (C represents 50 ≤ multiple X<100) | A (A represents 1 ≤ multiple X<20) | C (C represents 50 ≤ multiple X<100) | 10 to 100 | 10 to 100 | Cc1cn2nccc2c(C(C)Oc2ccc3[nH]nc(-c4cnn(C)c4)c3c2)n1 (stereo not drawn) [Example 191, 6-methyl-4-(1-((3-(1-methyl-1H-pyrazol-4-yl)-1H-indazol-5-yl)oxy)ethyl)py razolo[1,5-a]pyrazine]
1 to 10 | < 1 | B (B represents 20 ≤ multiple X<50) | A (A represents 1 ≤ multiple X<20) | C (C represents 50 ≤ multiple X<100) | 10 to 100 | 10 to 100 | CC(Oc1ccc2[nH]nc(-c3cnn(C4CN(S(=O)(=O)N(C)C)C4)c3)c2c1)c1cccc2nccnc12 (stereo not drawn) [Example 194, N,N-dimethyl-3-(4-(5-(1-(quinoxalin-5-yl)ethoxy)-1H-indazol-3-yl)-1H-pyrazol-1-yl)azetidine-1-sulfonamide]
1 to 10 | < 1 | B (B represents 20 ≤ multiple X<50) | B (B represents 20 ≤ multiple X<50) | D (D represents 100 ≤ multiple X) | 10 to 100 | 10 to 100 | CNC1(C(=O)N2CC(n3cc(-c4n[nH]c5ccc(OC(C)c6cc(Cl)cc7nccnc67)cc45)cn3)C2)CC1 (stereo not drawn) [Example 212, (3-(4-(5-(1-(7-chloroquinoxalin-5-yl)ethoxy)-1H-indazol-3-yl)-1H-pyrazol-1-yl)azetidin-1-yl)(1-(methylamino)cyclopropyl)metha none]
1 to 10 | < 1 | C (C represents 50 ≤ multiple X<100) | A (A represents 1 ≤ multiple X<20) | C (C represents 50 ≤ multiple X<100) | 10 to 100 | 10 to 100 | Cc1cc(C(C)Oc2ccc3[nH]nc(-c4cnn(C5CN(C(=O)C(C)(C)O)C5)c4)c3c2)c2cccnc2c1 (stereo not drawn) [Example 213, 2-hydroxy-2-methyl-1-(3-(4-(5-(1-(7-methylquinolin-5-yl)ethoxy)-1H-indazol-3-yl)-1H-pyrazol-1-yl)azetidin-1-yl)propan-1-one]
10 to 100 | < 1 | B (B represents 20 ≤ multiple X<50) | B (B represents 20 ≤ multiple X<50) | D (D represents 100 ≤ multiple X) | > 100 | 10 to 100 | COC1(C(=O)N2CC(n3cc(-c4n[nH]c5ccc(OC(C)c6cc(Cl)cc7nccnc67)cc45)cn3)C2)CC1 (stereo not drawn) [Example 223, (3-(4-(5-(1-(7-chloroquinoxalin-5-yl)ethoxy)-1H-indazol-3-yl)-1H-pyrazol-1-yl)azetidin-1-yl)(1-methoxycyclopropyl)methanone]
1 to 10 | < 1 | B (B represents 20 ≤ multiple X<50) | C (C represents 50 ≤ multiple X<100) | D (D represents 100 ≤ multiple X) | 10 to 100 | 10 to 100 | COC(C)(C)C(=O)N1CC(n2cc(-c3n[nH]c4ccc(OC(C)c5cc(Cl)cc6nccnc56)cc34)cn2)C1 (stereo not drawn) [Example 224, 1-(3-(4-(5-(1-(7-chloroquinoxalin-5-yl)ethoxy)-1H-indazol-3-yl)-1-pyrazol-1-yl)azetidin-1-yl)-2-methoxy-2-methylpropan-1-one]

Structure (SMILES) | IC50 [1] [nM] | IC50 [2] [nM] | Selectivity (X) FGFR1/FGFR3 [2] | Selectivity (X) FGFR2/FGFR3 [2] | Selectivity (X) FGFR4/FGFR3 [2] | IC50 [3] [nM] | IC50 [4] [nM]
CC(Oc1ccc2[nH]nc(-c3cnn(C4CN(S(C)(=O)=O)C4)c3)c2c1)c1cccc2nccnc12 (stereo not drawn) [Example 195] | 1 to 10 | < 1 | B (B represents 20 ≤ multiple X<50) | A (A represents 1 ≤ multiple X<20) | B (B represents 20 ≤ multiple X<50) | 10 to 100 | 10 to 100
CC(Oc1ccc2[nH]nc(-c3cnn(C)c3)c2n1)c1c(C(F)F)ccc2ncccc12 (stereo not drawn) [Example 203] | 10 to 100 | < 1 | B (B represents 20 ≤ multiple X<50) | B (B represents 20 ≤ multiple X<50) | C (C represents 50 ≤ multiple X<100) | 10 to 100 | 10 to 100

Reference: EP4644383A1 (Jiangsu Yahong Meditech Co., Ltd., priority 2022, dated 2024)
